Experimental findings from paper PMC8443647, “Hybrid derivative of cathelicidin and human beta defensin-2 against Gram-positive bacteria: A novel approach for the treatment of bacterial keratitis” (Scientific Reports, 2021) are described below.

Data set [1] has as its system human corneal epithelial cells (HCE-2). The experiment in a line: cells. The format is cell-based. The conditions noted are these: 3 h; for IC50: Homo sapiens, Corneal epithelial cell, read-out: IC50 (concentration causing 50% inhibition of cell viability). As for the experimental part:
(§1) Cell viability and cytotoxicity of antibiotics and peptides were determined against human corneal epithelial cells (HCE-2, CRL-11135, ATCC, Manassas, Virginia, USA) using cell-counting-kit-8 (CCK-8) assay (Sigma Aldrich, Merck Life Science UK Limited, Dorset, UK) and lactate dehydrogenase (LDH) assay (ThermoFisher Scientific, UK), respectively, as per manufacturer’s guidelines. HCE-2 cells were cultured and seeded into a 96-well plate at a density of 7.5 × 10^3 cells/well and allowed to attach overnight and grew to 80–90% confluency in keratinocyte serum free medium (KSFM) supplemented with human recombinant epidermal growth factor, bovine pituitary extract, hydrocortisone, and insulin. Once the confluency reached 80–90%, the cells were incubated with treatment for 3 h before OD450 measurement was taken using BMG Clariostar microplate reader (BMG Labtech Ltd., Aylesbury, UK). Appropriate controls were used, including 0.1% Triton X-100 as positive control and KSFM as negative control. Cell viability was calculated using the following formula: [([…]) × 100; I = intensity] and cytotoxicity was calculated using the following formula: [((Itreatment – INC)/(IPC – INC)) × 100].

A further data set relates to fresh human erythrocytes. The experiment in a line: Hemolytic assay. The class given is cell-based. The conditions noted are these: 1 h. The method, then: (§2) Ethical approval was obtained from the Local Research Ethics Committee of University of Nottingham prior to the experiment (Ref: 176-1812). The experiment was conducted in accordance with the relevant guidelines and regulations. Hemolytic assay was performed according to the previously established protocol. Briefly, 5 ml of fresh human blood was collected from healthy participants with written informed consent, in an EDTA tube and centrifuged for 10 min at 1300g at 10 °C for separation of plasma. The remaining erythrocytes were rinsed and centrifuged further three times in Ca^2+/Mg^2+ free Dulbecco’s phosphate-buffered saline (DPBS). Subsequently, erythrocytes were diluted to 8% v/v in DPBS and incubated with 100 μl of treatment, positive control (1% Triton X-100) and negative control (DPBS), all in 1:1 ratio, for 1 h (final erythrocytes concentration = 4% v/v). After 1 h of incubation, the plate was centrifuged at 500×g for 5 min and 100 μl of supernatant of each well was transferred into a 96-well plate for measurement at OD540. Hemolysis (%) was calculated as [(Itreatment – INC)/(IPC – INC)] × 100.

The next data set in a line: Hemolytic assay. The class given is cell-based. The conditions noted are these: human. As for the experimental part:
as §2

The next data set deals with P. aeruginosa PAO1-L. The experiment in a line: microbe, parasite or virus in culture. The class given is cell-based. The conditions noted are these: Pseudomonas aeruginosa, PAO1, 24 h, caMHB, 24 h, read-out: MIC. From the text:
(§3) A range of Gram-positive and Gram-negative laboratory- and clinical-strain bacteria were used for the experiments. These included laboratory-strain methicillin-sensitive S. aureus (MSSA; including SH1000 and ATCC SA29213), laboratory-strain MRSA (ATCC MRSA43300), clinical-strain MRSA (MRSA-OS; an IK isolate), laboratory-strain methicillin-sensitive Staphylococcus epidermidis (MSSE; ATCC SE12228), laboratory invasive-strain P. aeruginosa (PAO1-L), and clinical cytotoxic-strain P. aeruginosa (PA-OS; an IK isolate).
(§4) In vitro antimicrobial efficacy of the antibiotics and designed HDPs was determined using an established MIC assay with broth microdilution method approved by the Clinical and Laboratory Standards Institute (CLSI)[64]. Briefly, the microorganisms were cultured on Tryptone Soya Agar (TSA) and incubated overnight for 18–21 h at 37 °C. Bacterial inoculums were subsequently prepared using the direct colony suspension method. Three to five bacterial colonies were obtained from the agar plate and inoculated into an Eppendorf tube containing 1 ml of cation-adjusted Muller-Hinton broth (caMHB), consisting of 20–25 mg/L calcium ions (Ca^2+) and 10–12.5 mg/L magnesium ions (Mg^2+). The bacterial suspension was adjusted to achieve a turbidity equivalent to 0.1 OD600 or 0.5 MacFarland, containing ~ 1.5 × 10^8 colony-forming unit (CFU)/ml, which was then further diluted in 1:150 in caMHB to reach a final bacterial concentration of ~ 1 × 10^6 colony forming units (CFU)/ml. Each treatment (peptide or antibiotic) was prepared in 1:2 serial dilution in 96-well polypropylene microplates (with a final treatment volume of 50 μl per well), followed by the addition of 50 μl of 1 × 10^6 CFU/ml bacteria into each well (with a final bacterial concentration of 5 × 10^5 CFU/ml).

The subject of a further data set is P. aeruginosa PA-OS. In words: microbe, parasite or virus in culture. The class given is cell-based. The conditions noted are these: Pseudomonas aeruginosa, 24 h, caMHB, read-out: MIC.
Description: as §3, §4

Data set [2] deals with human corneal epithelial cells (HCE-2). In words: in vitro. The format is cell-based. The conditions noted are these: human, 3 h, 200 µg/ml. The method, then:
as §1

Another data set is described as follows: in vitro. The class given is cell-based, human. The conditions noted are these: human. As for the experimental part:
as §1

The test system of the next data set is S. aureus ATCC SA29213. The experiment in a line: Multipassage antimicrobial resistance (AMR) assay. The format is cell-based, Staphylococcus aureus. As for the experimental part: Multipassage AMR assays were performed to evaluate the risk of development of AMR of S. aureus (ATCC SA29213) against CaD23 and amikacin over 10 consecutive passages (days). The assay was conducted in a similar manner of the MIC assay described above. […] This was then further diluted in 1:150 in caMHB to reach a final bacterial concentration of ~ 1 × 10^6 colony forming units (CFU)/ml. […] Development of AMR was defined as ≥ fourfold increase in the MIC level compared to the baseline.

For a further data set, the system named is MRSA-OS. The experiment in a line: microbe, parasite or virus in culture. The format is cell-based, Staphylococcus aureus. The conditions noted are these: caMHB, 24 h.
Description: as §3, §4

A further data set deals with S. aureus SH1000. In words: microbe, parasite or virus in culture. The format is cell-based, Staphylococcus aureus. The conditions noted are these: Staphylococcus aureus, SH1000, 24 h, caMHB, 24 h, read-out: MIC.
Description: as §3, §4

For the next data set, the system named is S. aureus (SH1000). In words: Time-kill kinetics assay. The class given is cell-based, Staphylococcus aureus. The method, then:
Time-kill kinetics assay was performed to determine the time-dependent and concentration-dependent in vitro antimicrobial effects of the CaD23 and amikacin, a commonly used topical antibiotics for BK, against 100 μl of ~ 1 × 10^6 CFU/ml of SH1000 (1:1 treatment-bacteria ratio) at various time points, including 0 min (pre-treatment), 15 min, 30 min, 60 min, 2 h, 4 h, and 24 h. At each time point, 10 μl of the treated bacteria was transferred to an Eppendorf tube containing 90 μl of PBS, which was then serially diluted in 1:10 concentration for inoculation on agar plates and incubated overnight for 18–21 h at 37 °C for enumeration of CFU.

For the next data set, the system named is S. aureus ATCC 29213. In words: Murine S. aureus keratitis model (in vivo efficacy). On the set-up: species or system Staphylococcus aureus; C57BL/6J mice. The conditions noted are these: levofloxacin 0.5%. The method, then: Based on the in vivo safety data, the highest tolerable concentration of CaD23, 500 μg/ml (0.05%), was used in the subsequent S. aureus keratitis murine model. Levofloxacin 0.5%, a commonly used antibiotic for BK in clinical setting, and PBS were used as the positive and negative controls, respectively.
All mice were randomly allocated to each treatment group (n = 5 mice/group). Slit-lamp examination was performed before the start of experiment to confirm the health of corneas. […] 10 μl of ~ 1 × 10^8 CFU/ml of ATCC SA29213 was applied topically onto the cornea and the lid was held shut for 1 min. […] The eyes were monitored daily using slit-lamp biomicroscopy and photography. Ocular clinical scoring was adapted from a previous method described by Clemens et al.[52] with minor modifications: (a) 0: Clear cornea or minimal opacity, partially covering the pupil; (b) + 1: Mild opacity, partially/fully covering the pupil; (c) + 2: Dense opacity, partially covering the pupil; (d) + 3: Dense opacity fully covering the pupil; and (e) + 4: Corneal perforation or phthisis.
At the end of day 3, all animals were sacrificed, and the infected eyes were enucleated. The whole corneas were subsequently dissected and homogenized in 1 ml of sterile PBS using sterile glass micro-beads. The homogenised infected corneal tissue suspension was serially diluted in 1:10 and plated on TSA plates in triplicates for enumeration of CFU after 24 h incubation at 37 °C.

Where [3] appears, read: Staphylococcus aureus, MRSA, 0 mM NaCl, read-out: MIC.

Molecules are shown by their SMILES. Where “and” joins values, the source holds several entries; their conditions need not be identical. Equal values may be shown once. Read-outs that look alike come from different tables or passages of the source.

In general, CC50 refers to the concentration giving 50% cytotoxicity. Read a high CC50 as better tolerance by the cells. In the case of `NCC[C@H](O)C(=O)N[C@@H]1C[C@H](N)[C@@H](O[C@H]2O[C@H](CN)[C@@H](O)[C@H](O)[C@H]2O)[C@H](O)[C@H]1O[C@H]1O[C@H](CO)[C@@H](O)[C@H](N)[C@H]1O` [Amikacin, amikacin, reference compound], the IC50 in data set [1] is more than 200 µg/mL. Further, the “HC50 (concentration causing 50% hemolysis)” value in the data set with fresh human erythrocytes was more than 200 µg/mL. The hemolysis at 1 h, 200 µg/ml in the data set “Hemolytic assay” (fresh human erythrocytes (4% v/v), human erythrocytes, 200 µg/ml, 1 h, mean (SD), read-out: Hmax (%): percentage of hemolysis at 200 µg/ml) stood at 0%. Also, the MIC was 0.63 µg/mL and 1.08 µM in the data set with P. aeruginosa PAO1-L (0 mM NaCl); 1.25 µg/mL and 2.13 µM in the data set with P. aeruginosa PAO1-L (150 mM NaCl); 0.63 µg/mL and 1.08 µM with P. aeruginosa PA-OS (0 mM NaCl); 1.25 µg/mL and 2.13 µM with P. aeruginosa PA-OS (150 mM NaCl); 10 µg/mL with MRSA-OS (150 mM NaCl); 17.1 µM with MRSA-OS (150 mM NaCl, read-out: MIC). Besides, the MIC is 10 µg/mL and 17.1 µM in the data set with MRSA-OS (setting [3]); 1.25 µg/mL and 2.13 µM with S. aureus SH1000 (0 mM NaCl); 2.5 µg/mL and 4.27 µM with S. aureus SH1000 (150 mM NaCl). For the same compound, the “Lmax (%): percentage of cytotoxicity at 200 µg/ml” value in [2] is 0.0 (0.1) %. Further, in the data set “in vitro”, the CC50 at 3 h is more than 200 µg/mL. In addition, the “Increase in the MIC after the 2nd passage” value in the data set with S. aureus ATCC SA29213 (2nd passage) is “fourfold”. In the data set on S. aureus ATCC SA29213 (10 consecutive passages (days)), the “Increase in the MIC after the 10th passage” value is 32 fold. In addition, the “Development of AMR after 10 consecutive passages” value with S. aureus ATCC SA29213 (AMR defined as ≥ fourfold increase in MIC vs baseline) is “developed significant AMR”. The “Bacterial re-growth at 24 h time-point” value with S. aureus (SH1000) (CaD23 25 μg/ml, amikacin 10 μg/ml and 25 μg/ml) is reported as “no evidence of bacterial re-growth”. For the same compound, the “Time to complete killing” value is recorded as not above 4 h in the data set with S. aureus (SH1000) (amikacin 20 μg/ml (8× MIC), caMHB with 150 mM NaCl) and not above 4 h in the data set with S. aureus (SH1000) (amikacin 8× MIC (10 μg/ml), caMHB). Also, in the data set on S. aureus (SH1000) (amikacin 25 μg/ml (20× MIC) vs CaD23 25 μg/ml (2× MIC)), the “Speed of killing relative to CaD23 (times slower)” value is 8 times.

As to `C[C@H]1COc2c(N3CCN(C)CC3)c(F)cc3c(=O)c(C(=O)O)cn1c23` [Levofloxacin, levofloxacin, reference compound], the “Imax (%): percentage of inhibition of cell viability at 200 µg/ml” value in [1] (HCE-2, CCK-8 assay, 200 µg/ml, mean (SD)) was 108.0 (2.8) %. Moreover, in [1] (HCE-2, CCK-8 assay, mean (SD)), the IC50 is more than 200 µg/mL. In addition, the “HC50 (concentration causing 50% hemolysis)” value in the data set with fresh human erythrocytes was more than 200 µg/mL. Moreover, the hemolysis at 1 h, 200 µg/ml in “Hemolytic assay” (Hmax (%): percentage of hemolysis at 200 µg/ml) is 0%. Besides, the MIC was 0.31 µg/mL and 0.86 µM in the data set with P. aeruginosa PAO1-L (0 mM NaCl); 0.31 µg/mL and 0.86 µM with P. aeruginosa PAO1-L (150 mM NaCl); 0.31 µg/mL and 0.86 µM with P. aeruginosa PA-OS (0 mM NaCl); 0.31 µg/mL and 0.86 µM with P. aeruginosa PA-OS (150 mM NaCl); 0.31 µg/mL in the data set on MRSA-OS (150 mM NaCl); 0.86 µM in the data set on MRSA-OS (150 mM NaCl, read-out: MIC). Also, the MIC in the data set on MRSA-OS (setting [3]) is 0.31 µg/mL and 0.86 µM; in the data set on S. aureus SH1000 (0 mM NaCl), 0.31 µg/mL and 0.86 µM; with S. aureus SH1000 (150 mM NaCl), 0.31 µg/mL and 0.86 µM. Moreover, the “Lmax (%): percentage of cytotoxicity at 200 µg/ml” value in data set [2] is 1.2 (0.7) %. The same compound yielded a CC50 at 3 h in “in vitro” of more than 200 µg/mL. The “S. aureus bacterial viability” value in the data set with S. aureus ATCC 29213 (CaD23 0.05%, after 3 days of treatment, median ± IQR) turned out to be 2.4 ± 2.2 log10 CFU/ml. Besides, the “Reduction of S. aureus bacterial viability compared to PBS group” value in the data set on S. aureus ATCC 29213 (CaD23 0.05%, topical 4 times a day for 3 days, median) is listed as 98%. In the data set on S. aureus ATCC 29213 (day 3 post-treatment, CaD23 0.05%, scale 0 to +4), this compound came in with an Ocular clinical scoring of 1.0 ± 0.71. The “Median reduction in the bacterial bioburden compared to the PBS group” value in the data set with S. aureus ATCC 29213 is 1.8 logCFU.
